Reference: article PMC10018608 (Signal Transduction and Targeted Therapy, 2023)
Where two headings read alike, the source gives them in different places.

Columns and labels:
[1] = test system: SARS-CoV-2 (B.1.1.7); assay: Plaque reduction assay in VeroE6-TMPRSS2; assay type: cell-based; conditions: Severe acute respiratory syndrome coronavirus 2
[2] = in vitro; assay type: in vitro ADME; conditions: human, microsomes, HLM 0.5 mg/mL, 1 μM
[3] = in vivo; conditions: male, Sprague-Dawley, rat
[4] = test system: MERS-CoV; assay: microbe, parasite or virus in culture; assay type: cell-based; conditions: Middle East respiratory syndrome-related coronavirus, VeroE6/TMPRSS2, read-out: EC50 (plaque reduction)
[5] = not given; remark: listed apart in the source
[6] = test system: human plasma protein; assay: in vitro; assay type: in vitro ADME; conditions: human plasma, 1 μM, equilibrium dialysis 5 h
[7] = in vitro; assay type: in vitro ADME, human; conditions: human plasma, equilibrium dialysis; read-out: plasma unbound fraction
[8] = target: T1, Neutrophil Elastase (Homo sapiens, UniProt P08246); assay: Mammalian proteases activity assay; assay type: biochemical
T1 construct: purchased Biovision, USA
T1 sequence (P08246 30-267): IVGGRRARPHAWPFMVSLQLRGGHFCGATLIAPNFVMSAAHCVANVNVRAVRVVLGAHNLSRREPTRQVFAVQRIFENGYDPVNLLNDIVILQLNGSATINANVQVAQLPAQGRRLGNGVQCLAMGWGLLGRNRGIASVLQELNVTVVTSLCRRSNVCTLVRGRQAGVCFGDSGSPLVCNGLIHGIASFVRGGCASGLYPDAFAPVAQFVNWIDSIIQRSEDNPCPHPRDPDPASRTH
Experimental: (§1) The mammalian proteases activity assay was analyzed using the assay kit (Biovision, USA) in triplicate by following manufacturer’s manual.

[9] = target: T2, Human Cathepsin L (Homo sapiens, UniProt P07711); assay: Mammalian proteases activity assay; assay type: biochemical
T2 construct: purchased Biovision, USA
T2 sequence (P07711 114-333): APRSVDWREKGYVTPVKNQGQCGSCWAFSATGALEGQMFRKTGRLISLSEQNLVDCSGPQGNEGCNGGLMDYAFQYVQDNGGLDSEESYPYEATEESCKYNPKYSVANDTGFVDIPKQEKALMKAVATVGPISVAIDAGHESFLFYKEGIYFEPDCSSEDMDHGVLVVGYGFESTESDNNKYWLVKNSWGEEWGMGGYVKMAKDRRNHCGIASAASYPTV
Experimental: as §1

[10] = in vivo; conditions: male, beagle, dog
[11] = test system: SARS-CoV-2 Omicron BA.1 (B.1.1.529.1); assay: In vitro antiviral screening, viral genome copies by RT-qPCR in VeroE6-TMPRSS2; assay type: cell-based; conditions: Omicron BA.1, VeroE6-TMPRSS2
[12] = in vivo; conditions: male, ICR, mouse
[13] = in vivo; conditions: male, cynomolgus monkey
[14] = in vitro; assay type: cell-based; conditions: 72 h
Experimental: Cells were seeded and grown in 96 well plates overnight. Then various concentrations of compounds in fresh medium were added and incubated for 72 h. Using MTT (Sigma) assay to determine the cell viability.

[15] = test system: SARS-CoV-2 Omicron BA.2 sublineage; assay type: in vivo, K18-hACE2 transgenic mice
[16] = test system: SARS-CoV-2 (B.1.351); assay: Plaque reduction assay in VeroE6-TMPRSS2; assay type: cell-based; conditions: Severe acute respiratory syndrome coronavirus 2
[17] = Beagle Dog, i.v. (1 mg/kg)
[18] = Monkey
[19] = test system: various human proteases; assay: Mammalian proteases activity assay (text summary of the panel); assay type: biochemical; conditions: tested various human proteases
Experimental: as §1

[20] = SD rats
[21] = for Corpora lutea / Implantation sites / Live embryos / Resorptions: cesarean section observation; for appearance malformation rate (%): fetal appearance
[22] = female, SD, rat, in vivo, 1000 mg/kg

COC[C@@H](NC(=O)C1CCCC(F)(F)C1)C(=O)N[C@H](Cc1ccccc1)C(=O)C(=O)NCc1nccs1 (stereo partly drawn) [SY110, N-((R)-1-(((R)-3,4-dioxo-1-phenyl-4-((thiazol-2-ylmethyl)amino)butan-2-yl)amino)-3-methoxy-1-oxopropan-2-yl)-3,3-difluorocyclohexane-1-carboxamide]
EC50 [1]: 1.21 µM | remaining at 0 h ([2]; 0 min, Mean, read-out: Percent Remaining (%) 0 min): 100% | remaining at 5 min ([2]; 5 min, Mean, read-out: Percent Remaining (%) 5 min): 80.7% | remaining at […] ([2]; 15 min, Mean, read-out: Percent Remaining (%) 15 min): 65.4% | remaining at 0.5 h ([2]; 30 min, Mean, read-out: Percent Remaining (%) 30 min): 48% | remaining at 0.75 h ([2]; 45 min, Mean, read-out: Percent Remaining (%) 45 min): 37.2% | remaining at 1 h ([2]; 60 min, Mean, read-out: Percent Remaining (%) 60 min): 29.8% | CLint scaled ([2]; scaling factor 1254.2): 49.2 mL/min/kg | AUC(0-inf) ([3]; iv, 1 mg/kg): 2320 ± 592 ng·h/mL | AUC(0-t) ([3]; iv, 1 mg/kg): 2300 ± 587 ng·h/mL | Cmax ([3]; iv, 1 mg/kg): 1740 ± 285 ng/mL | Tmax ([3]; iv, 1 mg/kg): 4.8 min | clearance ([3]; iv, 1 mg/kg): 7.47 ± 1.67 mL/min/kg | half-life ([3]; iv, 1 mg/kg): 280 ± 11.4 min | AUC(0-inf) ([3]; po, 10 mg/kg): 20200 ± 2600 ng·h/mL | AUC(0-t) ([3]; po, 10 mg/kg): 19000 ng·h/mL | Cmax ([3]; po, 10 mg/kg): 1430 ± 98.5 ng/mL | Tmax ([3]; po, 10 mg/kg): 240 ± 120 min | bioavailability ([3]; po, 10 mg/kg): 82.8% | half-life ([3]; po, 10 mg/kg): 310 ± 176 min | EC50 [4]: 6.27 µM | Results, acute toxicity study (mice, p.o., 1000 mg/kg, single dose): No mice died | maximal tolerated single dose (text says rats): at least 1.0 g/kg | no observed adverse effect level ([5]; 14 days repeated dose toxicity study, text says rats): 600 mg/kg | Results, repeated dose two-week toxicity study ([5]; mice, p.o., 600 mg/kg, twice daily, 14 days): without death, significant body weight change, or pathological changes in the heart, liver, lung, kidney, or spleen | Fraction of Bound (%) [6]: 69.9% | fraction unbound [7]: 0.301 | IC50 [8]: > 100 µM | IC50 [9]: > 100 µM | AUC(0-inf) ([10]; iv, 1 mg/kg): 628 ± 113 ng·h/mL | AUC(0-t) ([10]; iv, 1 mg/kg): 624 ± 113 ng·h/mL | Cmax ([10]; iv, 1 mg/kg): 1270 ± 333 ng/mL | Tmax ([10]; iv, 1 mg/kg): 4.98 min | clearance ([10]; iv, 1 mg/kg): 27.1 mL/min/kg | half-life ([10]; iv, 1 mg/kg): 36.6 ± 3 min | AUC(0-inf) ([10]; po, 10 mg/kg): 8290 ± 378 ng·h/mL | AUC(0-t) ([10]; po, 10 mg/kg): 8240 ± 370 ng·h/mL | Cmax ([10]; po, 10 mg/kg): 3060 ± 136 ng/mL | Tmax ([10]; po, 10 mg/kg): 60 min | bioavailability ([10]; po, 10 mg/kg): 132% | half-life ([10]; po, 10 mg/kg): 335 ± 74.4 min | antiviral activity among the six compounds tested [11]: most potent antiviral activity | AUC(0-inf) ([12]; iv, 1 mg/kg): 87.1 ± 7.81 ng·h/mL | AUC(0-t) ([12]; iv, 1 mg/kg): 85.9 ± 7.6 ng·h/mL | Cmax ([12]; iv, 1 mg/kg): 285 ± 16.4 ng/mL | Tmax ([12]; iv, 1 mg/kg): 4.8 min | clearance ([12]; iv, 1 mg/kg): 192 ± 16.4 mL/min/kg | half-life ([12]; iv, 1 mg/kg): 16.2 ± 10.2 min | AUC(0-inf) ([12]; po, 150 mg/kg): 15700 ± 4420 ng·h/mL | AUC(0-t) ([12]; po, 150 mg/kg): 15100 ± 5140 ng·h/mL | Cmax ([12]; po, 150 mg/kg): 4080 ± 636 ng/mL | Tmax ([12]; po, 150 mg/kg): 19.8 ± 8.4 min | half-life ([12]; po, 150 mg/kg): 195 ± 61.8 min | AUC(0-inf) ([13]; iv, 1 mg/kg): 506 ± 60.7 ng·h/mL | AUC(0-t) ([13]; iv, 1 mg/kg): 501 ± 59.9 ng·h/mL | Cmax ([13]; iv, 1 mg/kg): 567 ± 38.2 ng/mL | Tmax ([13]; iv, 1 mg/kg): 4.8 min | clearance ([13]; iv, 1 mg/kg): 33.3 mL/min/kg | half-life ([13]; iv, 1 mg/kg): 43.8 ± 12 min | AUC(0-t) ([13]; po, 10 mg/kg): 1220 ± 56.8 ng·h/mL | Cmax ([13]; po, 10 mg/kg): 242 ± 54.2 ng/mL | Tmax ([13]; po, 10 mg/kg): 140 ± 91.8 min | bioavailability ([13]; po, 10 mg/kg): 24.4% | half-life ([13]; po, 10 mg/kg): 334 ± 63 min | CC50 ([14]; African green monkey, VeroE6, MTT): > 500 µM | CC50 ([14]; human, BEAS-2B, MTT): > 500 µM | CC50 ([14]; human, HUVEC, MTT): > 500 µM | lung pathology, H&E staining ([15]; mouse, in vivo): only scattered inflammatory cell infiltrates can be occasionally found in the alveolar interstitium | viral N protein expression in the lung tissue ([15]; mouse, in vivo): substantially reduced the viral N protein expression | production of the infectious virus particles in the lung ([15]; plaque assays, therapeutic treatment): effectively suppressed | EC50 [16]: 2.84 µM | MTRlast [17]: 0.47 ± 0.05 h | MTRlast ([18]; i.v. (1 mg/kg)): 0.90 ± 0.18 h | MTRlast ([18]; p.o. (10 mg/kg)): 4.71 ± 0.89 h | IC50 [19]: > 100 µM | MTRlast ([20]; i.v. (1 mg/kg)): 2.34 ± 0.22 h | Vzobs ([20]; i.v. (1 mg/kg)): 3.03 ± 0.71 L/kg | MTRlast ([20]; p.o. (10 mg/kg)): 6.60 ± 0.89 h | Abnormal initial position of common carotid artery [21, 22]: 0.0 ± 0.0 | Abnormal initial position of subclavian artery [21, 22]: 0.0 ± 0.0 | Abnormal position of umbilical artery [21, 22]: 0.0 ± 0.0 | Absent of aortic arch [21, 22]: 0.0 ± 0.0 | Absent of innominate artery [21, 22]: 0.0 ± 0.0 | Rib: 14 Ribs – [V] [21, 22]: 6.9 ± 10.1 | Rib: Shortened #13 – [V] [21, 22]: 2.9 ± 6.4 | Skull: Interparietal bone, incomplete ossification – [V] [21, 22]: 0.0 ± 0.0 | Skull: Parietal bone, incomplete ossification – [V] [21, 22]: 0.0 ± 0.0 | Visceral malformation rate (%) [21, 22]: 0.0 ± 0.0% | Corpora lutea ([21]; rat, 100 mg/kg): 16.2 ± 2.1 | Implantation sites ([21]; rat, 100 mg/kg): 15.0 ± 3.5 | Live embryos ([21]; rat, 100 mg/kg): 14.5 ± 3.6 | Resorptions ([21]; rat, 100 mg/kg): 0.5 ± 0.8 | Corpora lutea ([21]; rat, 300 mg/kg): 17.7 ± 1.5 | Implantation sites ([21]; rat, 300 mg/kg): 16.9 ± 1.5 | Live embryos ([21]; rat, 300 mg/kg): 16.3 ± 1.6 | Resorptions ([21]; rat, 300 mg/kg): 0.6 ± 0.5 | Corpora lutea ([21]; rat, 1000 mg/kg): 17.4 ± 2.5 | Implantation sites ([21]; rat, 1000 mg/kg): 17.0 ± 2.5 | Live embryos ([21]; rat, 1000 mg/kg): 16.4 ± 2.1 | Resorptions ([21]; rat, 1000 mg/kg): 0.6 ± 0.9 | appearance malformation rate (%) ([21]; rat, 100 mg/kg): 0.0 ± 0.0% | appearance malformation rate (%) ([21]; rat, 300 mg/kg): 0.0 ± 0.0% | appearance malformation rate (%) ([21]; rat, 1000 mg/kg): 0.0 ± 0.0% | embryo-fetal development study outcome ([21]; rats, 1000 mg/kg/day (the highest dose tested)): no observed SY110-related maternal toxicity, reproductive toxicity, and effect on embryo-fetal viability
